{"source": "the NIST ThermoML archive (doi:10.1016/j.jct.2017.07.024)", "key": {"[1]": {"conditions": "for surface tension liquid-gas: Maximal bubble pressure; for mass density: 100 kPa, Liquid, Vibrating tube method"}, "[2]": {"assay": "refractive index (Na D-line) (dimensionless)", "conditions": "100 kPa, Liquid, Standard Abbe refractometry"}}, "note": "Numbers after ± are expanded uncertainties.", "data": [{"smiles": "CCCCCCn1cc[n+](C)c1.C[C@@H](O)[C@H](N)C(=O)[O-]", "note": "[1-hexyl-3-methylimidazolium DL-threoninate]", "values": [{"measurement": "surface tension liquid-gas", "setting": "[1]; 288.15 K", "value": "37 ± 0.5", "unit": "mN/m"}, {"measurement": "mass density", "setting": "[1]; 288.15 K", "value": "1089.98 ± 0.68", "unit": "kg/m3"}, {"measurement": "surface tension liquid-gas", "setting": "[1]; 293.15 K", "value": "36.6 ± 0.5", "unit": "mN/m"}, {"measurement": "mass density", "setting": "[1]; 293.15 K", "value": "1086.67 ± 0.68", "unit": "kg/m3"}, {"measurement": "surface tension liquid-gas", "setting": "[1]; 298.15 K", "value": "36.3 ± 0.5", "unit": "mN/m"}, {"measurement": "mass density", "setting": "[1]; 298.15 K", "value": "1083.36 ± 0.68", "unit": "kg/m3"}, {"measurement": "surface tension liquid-gas", "setting": "[1]; 303.15 K", "value": "36 ± 0.5", "unit": "mN/m"}, {"measurement": "mass density", "setting": "[1]; 303.15 K", "value": "1080.02 ± 0.68", "unit": "kg/m3"}, {"measurement": "surface tension liquid-gas", "setting": "[1]; 308.15 K", "value": "35.7 ± 0.5", "unit": "mN/m"}, {"measurement": "mass density", "setting": "[1]; 308.15 K", "value": "1076.7 ± 0.68", "unit": "kg/m3"}, {"measurement": "surface tension liquid-gas", "setting": "[1]; 313.15 K", "value": "35.4 ± 0.5", "unit": "mN/m"}, {"measurement": "mass density", "setting": "[1]; 313.15 K", "value": "1073.42 ± 0.67", "unit": "kg/m3"}, {"measurement": "surface tension liquid-gas", "setting": "[1]; 318.15 K", "value": "35 ± 0.5", "unit": "mN/m"}, {"measurement": "mass density", "setting": "[1]; 318.15 K", "value": "1069.96 ± 0.67", "unit": "kg/m3"}, {"measurement": "surface tension liquid-gas", "setting": "[1]; 323.15 K", "value": "34.7 ± 0.5", "unit": "mN/m"}, {"measurement": "mass density", "setting": "[1]; 323.15 K", "value": "1066.82 ± 0.67", "unit": "kg/m3"}, {"measurement": "surface tension liquid-gas", "setting": "[1]; 328.15 K", "value": "34.4 ± 0.5", "unit": "mN/m"}, {"measurement": "mass density", "setting": "[1]; 328.15 K", "value": "1063.52 ± 0.67", "unit": "kg/m3"}, {"measurement": "refractive index", "setting": "[2]; 288.15 K", "value": "1.5049 ± 0.0013"}, {"measurement": "refractive index", "setting": "[2]; 293.15 K", "value": "1.5033 ± 0.0013"}, {"measurement": "refractive index", "setting": "[2]; 298.15 K", "value": "1.5019 ± 0.0013"}, {"measurement": "refractive index", "setting": "[2]; 303.15 K", "value": "1.5001 ± 0.0013"}, {"measurement": "refractive index", "setting": "[2]; 308.15 K", "value": "1.4988 ± 0.0013"}, {"measurement": "refractive index", "setting": "[2]; 313.15 K", "value": "1.4971 ± 0.0013"}, {"measurement": "refractive index", "setting": "[2]; 318.15 K", "value": "1.4957 ± 0.0013"}, {"measurement": "refractive index", "setting": "[2]; 323.15 K", "value": "1.494 ± 0.0013"}, {"measurement": "refractive index", "setting": "[2]; 328.15 K", "value": "1.4925 ± 0.0013"}]}, {"smiles": "CCCCCn1cc[n+](C)c1.C[C@@H](O)[C@H](N)C(=O)[O-]", "note": "[1-pentyl-3-methylimidazolium DL-threoninate]", "values": [{"measurement": "surface tension liquid-gas", "setting": "[1]; 288.15 K", "value": "38.2 ± 0.5", "unit": "mN/m"}, {"measurement": "mass density", "setting": "[1]; 288.15 K", "value": "1107.7 ± 0.68", "unit": "kg/m3"}, {"measurement": "surface tension liquid-gas", "setting": "[1]; 293.15 K", "value": "37.8 ± 0.5", "unit": "mN/m"}, {"measurement": "mass density", "setting": "[1]; 293.15 K", "value": "1104.39 ± 0.68", "unit": "kg/m3"}, {"measurement": "surface tension liquid-gas", "setting": "[1]; 298.15 K", "value": "37.6 ± 0.5", "unit": "mN/m"}, {"measurement": "mass density", "setting": "[1]; 298.15 K", "value": "1101.08 ± 0.68", "unit": "kg/m3"}, {"measurement": "surface tension liquid-gas", "setting": "[1]; 303.15 K", "value": "37.2 ± 0.5", "unit": "mN/m"}, {"measurement": "mass density", "setting": "[1]; 303.15 K", "value": "1097.75 ± 0.68", "unit": "kg/m3"}, {"measurement": "surface tension liquid-gas", "setting": "[1]; 308.15 K", "value": "36.9 ± 0.5", "unit": "mN/m"}, {"measurement": "mass density", "setting": "[1]; 308.15 K", "value": "1094.43 ± 0.68", "unit": "kg/m3"}, {"measurement": "surface tension liquid-gas", "setting": "[1]; 313.15 K", "value": "36.6 ± 0.5", "unit": "mN/m"}, {"measurement": "mass density", "setting": "[1]; 313.15 K", "value": "1091.16 ± 0.68", "unit": "kg/m3"}, {"measurement": "surface tension liquid-gas", "setting": "[1]; 318.15 K", "value": "36.2 ± 0.5", "unit": "mN/m"}, {"measurement": "mass density", "setting": "[1]; 318.15 K", "value": "1087.7 ± 0.68", "unit": "kg/m3"}, {"measurement": "surface tension liquid-gas", "setting": "[1]; 323.15 K", "value": "35.9 ± 0.5", "unit": "mN/m"}, {"measurement": "mass density", "setting": "[1]; 323.15 K", "value": "1084.55 ± 0.68", "unit": "kg/m3"}, {"measurement": "surface tension liquid-gas", "setting": "[1]; 328.15 K", "value": "35.6 ± 0.5", "unit": "mN/m"}, {"measurement": "mass density", "setting": "[1]; 328.15 K", "value": "1081.25 ± 0.68", "unit": "kg/m3"}, {"measurement": "refractive index", "setting": "[2]; 288.15 K", "value": "1.508 ± 0.0013"}, {"measurement": "refractive index", "setting": "[2]; 293.15 K", "value": "1.5065 ± 0.0013"}, {"measurement": "refractive index", "setting": "[2]; 298.15 K", "value": "1.5048 ± 0.0013"}, {"measurement": "refractive index", "setting": "[2]; 303.15 K", "value": "1.5032 ± 0.0013"}, {"measurement": "refractive index", "setting": "[2]; 308.15 K", "value": "1.5018 ± 0.0013"}, {"measurement": "refractive index", "setting": "[2]; 313.15 K", "value": "1.5001 ± 0.0013"}, {"measurement": "refractive index", "setting": "[2]; 318.15 K", "value": "1.4987 ± 0.0013"}, {"measurement": "refractive index", "setting": "[2]; 323.15 K", "value": "1.497 ± 0.0013"}, {"measurement": "refractive index", "setting": "[2]; 328.15 K", "value": "1.4955 ± 0.0013"}]}, {"smiles": "CCCn1cc[n+](C)c1.C[C@@H](O)[C@H](N)C(=O)[O-]", "note": "[1-propyl-3-methylimidazolium DL-threoninate]", "values": [{"measurement": "surface tension liquid-gas", "setting": "[1]; 288.15 K", "value": "41.4 ± 0.5", "unit": "mN/m"}, {"measurement": "mass density", "setting": "[1]; 288.15 K", "value": "1151.33 ± 0.7", "unit": "kg/m3"}, {"measurement": "surface tension liquid-gas", "setting": "[1]; 293.15 K", "value": "41.1 ± 0.5", "unit": "mN/m"}, {"measurement": "mass density", "setting": "[1]; 293.15 K", "value": "1148.8 ± 0.7", "unit": "kg/m3"}, {"measurement": "surface tension liquid-gas", "setting": "[1]; 298.15 K", "value": "40.7 ± 0.5", "unit": "mN/m"}, {"measurement": "mass density", "setting": "[1]; 298.15 K", "value": "1144.52 ± 0.7", "unit": "kg/m3"}, {"measurement": "surface tension liquid-gas", "setting": "[1]; 303.15 K", "value": "40.4 ± 0.5", "unit": "mN/m"}, {"measurement": "mass density", "setting": "[1]; 303.15 K", "value": "1141.13 ± 0.7", "unit": "kg/m3"}, {"measurement": "surface tension liquid-gas", "setting": "[1]; 308.15 K", "value": "40.1 ± 0.5", "unit": "mN/m"}, {"measurement": "mass density", "setting": "[1]; 308.15 K", "value": "1137.76 ± 0.69", "unit": "kg/m3"}, {"measurement": "surface tension liquid-gas", "setting": "[1]; 313.15 K", "value": "39.8 ± 0.5", "unit": "mN/m"}, {"measurement": "mass density", "setting": "[1]; 313.15 K", "value": "1134.38 ± 0.69", "unit": "kg/m3"}, {"measurement": "surface tension liquid-gas", "setting": "[1]; 318.15 K", "value": "39.4 ± 0.5", "unit": "mN/m"}, {"measurement": "mass density", "setting": "[1]; 318.15 K", "value": "1130.9 ± 0.69", "unit": "kg/m3"}, {"measurement": "surface tension liquid-gas", "setting": "[1]; 323.15 K", "value": "39.1 ± 0.5", "unit": "mN/m"}, {"measurement": "mass density", "setting": "[1]; 323.15 K", "value": "1127.5 ± 0.69", "unit": "kg/m3"}, {"measurement": "surface tension liquid-gas", "setting": "[1]; 328.15 K", "value": "38.7 ± 0.5", "unit": "mN/m"}, {"measurement": "mass density", "setting": "[1]; 328.15 K", "value": "1124.07 ± 0.69", "unit": "kg/m3"}, {"measurement": "refractive index", "setting": "[2]; 288.15 K", "value": "1.5147 ± 0.0013"}, {"measurement": "refractive index", "setting": "[2]; 293.15 K", "value": "1.5131 ± 0.0013"}, {"measurement": "refractive index", "setting": "[2]; 298.15 K", "value": "1.5116 ± 0.0013"}, {"measurement": "refractive index", "setting": "[2]; 303.15 K", "value": "1.5101 ± 0.0013"}, {"measurement": "refractive index", "setting": "[2]; 308.15 K", "value": "1.5086 ± 0.0013"}, {"measurement": "refractive index", "setting": "[2]; 313.15 K", "value": "1.5071 ± 0.0013"}, {"measurement": "refractive index", "setting": "[2]; 318.15 K", "value": "1.5055 ± 0.0013"}, {"measurement": "refractive index", "setting": "[2]; 323.15 K", "value": "1.5039 ± 0.0013"}, {"measurement": "refractive index", "setting": "[2]; 328.15 K", "value": "1.5026 ± 0.0013"}]}]}
